# Results taken from patent US11472778B2, “Hepatitis C virus NS3/4A protease inhibitors” (priority 2017, dated 2022).
# Where two headings read alike, the source gives them in different places.
# How the values were obtained:
# Type in all cases: biochemical, Hepatitis C virus
# [1] = target: T1, GT1a D168A NS3/4A protease (UniProt P27958, D1194A, species not given)
# T1 construct: rows headed: Ki (nM) D168A; Ki D168A; other: D168A variant
# How it was run: (§1)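 NS3/4A protease (2 nM; wild-type GT1a or D168A) pre-incubated 1 h at room temperature with increasing inhibitor in 50 mM Tris pH 7.5, 5% glycerol, 10 mM DTT, 0.6 mM LDAO, 4% DMSO. Ki from three independent data sets per construct; ΔG=RTlnKi.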
# [2] = target: T2, wild-type GT1a NS3/4A protease (UniProt P27958)
# T2 construct: Ki WT; other: wild-type HCV NS3/4A protease
# How it was run: as §1
# [3] = target: GT1a D168A NS3/4A protease; conditions: fold change in Ki, D168A relative to WT
# How it was run: as §1
# [4] = target: GT1a R155K NS3/4A protease; conditions: fold change in Ki, R155K relative to WT
# Protocol: (§2) For each assay, 2 nM of NS3/4A protease (GT1a, R155K and D168A) was pre-incubated at room temperature for 1 h with increasing concentration of inhibitors in assay buffer (50 mM Tris, 5% glycerol, 10 mM DTT, 0.6 mM LDAO, and 4% dimethyl sulfoxide, pH 7.5). Inhibition assays were performed in non-binding surface 96-well black half-area plates (Corning) in a reaction volume of 60 μL. […] Three independent data sets were collected for each inhibitor with each protease construct. […] Gibbs free energy of binding was calculated using the following equation: ΔG=RTlnKi
# [5] = target: GT1a R155K NS3/4A protease (UniProt P27958, R1181K, species not given)
# Protocol: as §2
# [6] = read-out: Ki (nM) D168A, Table 8, linear inhibitors
# [7] = read-out: Ki D168A, D168A variant
# [8] = read-out: Ki (nM) WT, Table 8, linear inhibitors
# [9] = read-out: Ki WT, wild-type HCV NS3/4A protease
# [10] = read-out: Ki (nM) R155K, Table 8, linear inhibitors
# [11] = read-out: Ki R155K, R155K variant
SMILES,"Ki [1, 6]","Ki [1, 7]","Ki [2, 8]","Ki [2, 9]",Ki D168A (fold change) [3],Ki R155K (fold change) [4],"Ki [5, 10]","Ki [5, 11]"
"C=C[C@@H]1C[C@]1(NC(=O)[C@@H]1C[C@@H](Oc2nc3cc(OC)ccc3nc2CC)CN1C(=O)[C@@H](NC(=O)OC1CCCC1)C(C)(C)C)C(=O)NS(=O)(=O)C1CC1 [Compound 11a, Cyclopentyl ((S)-1-((2S,4R)-2-(((1R,2S)-1-((cyclopropylsulfonyl)carbamoyl)-2-vinylcyclopropyl)carbamoyl)-4-((3-ethyl-7-methoxyquinoxalin-2-yl)oxy)pyrrolidin-1-yl)-3,3-dimethyl-1-oxobutan-2-yl)carbamate]",350 ± 30 nM,350 ± 30 nM,9.8 ± 2 nM,9.8 ± 2 nM,36,1.5,15 ± 2.2 nM,15 ± 2.2 nM
"C=C[C@@H]1C[C@]1(NC(=O)[C@@H]1C[C@@H](Oc2nc3cc(OC)ccc3nc2CC)CN1C(=O)[C@@H](NC(=O)OC(C)(C)C)C(C)(C)C)C(=O)NS(=O)(=O)C1(C)CC1 [Compound 10a, tert-Butyl ((S)-1-((2S,4R)-4-((3-ethyl-7-methoxyquinoxalin-2-yl)oxy)-2-(((1R,2S)-1-(((1-methylcyclopropyl)sulfonyl)carbamoyl)-2-vinylcyclopropyl)carbamoyl)pyrrolidin-1-yl)-3,3-dimethyl-1-oxobutan-2-yl)carbamate]",385 ± 31 nM,385 ± 31 nM,16 ± 1.3 nM,16 ± 1.3 nM,24,0.9,14 ± 1.1 nM,14 ± 1.1 nM
"C=C[C@@H]1C[C@]1(NC(=O)[C@@H]1C[C@@H](Oc2nc3cc(OC)ccc3nc2C(C)C)CN1C(=O)[C@@H](NC(=O)OC1CCCC1)C(C)(C)C)C(=O)NS(=O)(=O)C1(C)CC1 [Compound 12c, Cyclopentyl ((S)-1-((2S,4R)-4-((3-isopropyl-7-methoxyquinoxalin-2-yl)oxy)-2-(((1R,2S)-1-(((1-methylcyclopropyl)sulfonyl)carbamoyl)-2-vinylcyclopropyl)carbamoyl)pyrrolidin-1-yl)-3,3-dimethyl-1-oxobutan-2-yl)carbamate]",1000 ± 80 nM,1000 ± 80 nM,21 ± 2.6 nM,21 ± 2.6 nM,48,2.0,43 ± 11 nM,43 ± 11 nM
"C=C[C@@H]1C[C@]1(NC(=O)[C@@H]1C[C@@H](Oc2nc3cc(OC)ccc3nc2C)CN1C(=O)[C@@H](NC(=O)OC(C)(C)C)C(C)(C)C)C(=O)NS(=O)(=O)C1(C)CC1 [Compound 10b, tert-Butyl ((S)-1-((2S,4R)-4-((7-methoxy-3-methylquinoxalin-2-yl)oxy)-2-(((1R,2S)-1-(((1-methylcyclopropyl)sulfonyl)carbamoyl)-2-vinylcyclopropyl)carbamoyl)pyrrolidin-1-yl)-3,3-dimethyl-1-oxobutan-2-yl)carbamate]",265 ± 26 nM,265 ± 26 nM,14 ± 2.1 nM,14 ± 2.1 nM,19,1.0,14 ± 1.7 nM,14 ± 1.7 nM
"C=C[C@@H]1C[C@]1(NC(=O)[C@@H]1C[C@@H](Oc2nc3cc(OC)ccc3nc2C(C)C)CN1C(=O)[C@@H](NC(=O)OC1CCCC1)C(C)(C)C)C(=O)NS(=O)(=O)C1CC1 [Compound 11c, Cyclopentyl ((S)-1-((2S,4R)-2-(((1R,2S)-1-((cyclopropylsulfonyl)carbamoyl)-2-vinylcyclopropyl)carbamoyl)-4-((3-isopropyl-7-methoxyquinoxalin-2-yl)oxy)pyrrolidin-1-yl)-3,3-dimethyl-1-oxobutan-2-yl)carbamate]",985 ± 106 nM,985 ± 106 nM,17 ± 3.2 nM,17 ± 3.2 nM,58,3,55 ± 11 nM,55 ± 11 nM
"C=C[C@@H]1C[C@]1(NC(=O)[C@@H]1C[C@@H](Oc2nc3cc(OC)ccc3nc2C(C)C)CN1C(=O)[C@@H](NC(=O)OC(C)(C)C)C(C)(C)C)C(=O)NS(=O)(=O)C1CC1 [Compound 9c, tert-Butyl ((S)-1-((2S,4R)-2-(((1R,2S)-1-((cyclopropylsulfonyl)carbamoyl)-2-vinylcyclopropyl)carbamoyl)-4-((3-isopropyl-7-methoxyquinoxalin-2-yl)oxy)pyrrolidin-1-yl)-3,3-dimethyl-1-oxobutan-2-yl)carbamate]",1090 ± 137 nM,1090 ± 137 nM,32 ± 5.1 nM,32 ± 5.1 nM,34,1.5,49 ± 11 nM,49 ± 11 nM
"C=C[C@@H]1C[C@]1(NC(=O)[C@@H]1C[C@@H](Oc2nc3cc(OC)ccc3nc2CC)CN1C(=O)[C@@H](NC(=O)OC1CCCC1)C(C)(C)C)C(=O)NS(=O)(=O)C1(C)CC1 [Compound 12a, Cyclopentyl ((S)-1-((2S,4R)-4-((3-ethyl-7-methoxyquinoxalin-2-yl)oxy)-2-(((1R,2S)-1-(((1-methylcyclopropyl)sulfonyl)carbamoyl)-2-vinylcyclopropyl)carbamoyl)pyrrolidin-1-yl)-3,3-dimethyl-1-oxobutan-2-yl)carbamate]",145 nM,145 ± 14 nM,6.9 nM,6.9 ± 0.5 nM,21,1.9,13 ± 2.7 nM,13 ± 2.7 nM
"C=C[C@@H]1C[C@]1(NC(=O)[C@@H]1C[C@@H](Oc2nc3cc(OC)ccc3nc2C(F)(F)F)CN1C(=O)[C@@H](NC(=O)OC1CCCC1)C(C)(C)C)C(=O)NS(=O)(=O)C1CC1 [Compound 11e, Cyclopentyl ((S)-1-((2S,4R)-2-(((1R,2S)-1-((cyclopropylsulfonyl)carbamoyl)-2-vinylcyclopropyl)carbamoyl)-4-((7-methoxy-3-(trifluoromethyl)quinoxalin-2-yl)oxy)pyrrolidin-1-yl)-3,3-dimethyl-1-oxobutan-2-yl)carbamate]",703 ± 63 nM,703 ± 63 nM,34 ± 8.3 nM,34 ± 8.3 nM,21,0.8,26 ± 7.7 nM,26 ± 7.7 nM
"C=C[C@@H]1C[C@]1(NC(=O)[C@@H]1C[C@@H](Oc2nc3cc(OC)ccc3nc2C(F)(F)F)CN1C(=O)[C@@H](NC(=O)OC(C)(C)C)C(C)(C)C)C(=O)NS(=O)(=O)C1(C)CC1 [Compound 10e, tert-Butyl ((S)-1-((2S,4R)-4-((7-methoxy-3-(trifluoromethyl)quinoxalin-2-yl)oxy)-2-(((1R,2S)-1-(((1-methylcyclopropyl)sulfonyl)carbamoyl)-2-vinylcyclopropyl)carbamoyl)pyrrolidin-1-yl)-3,3-dimethyl-1-oxobutan-2-yl)carbamate]",513 ± 50 nM,513 ± 50 nM,46 ± 9.6 nM,46 ± 9.6 nM,11,0.3,12 ± 1.7 nM,12 ± 1.7 nM
"C=C[C@@H]1C[C@]1(NC(=O)[C@@H]1C[C@@H](Oc2nc3cc(OC)ccc3nc2C(C)C)CN1C(=O)[C@@H](NC(=O)OC(C)(C)C)C(C)(C)C)C(=O)NS(=O)(=O)C1(C)CC1 [Compound 10c, tert-Butyl ((S)-1-((2S,4R)-4-((3-isopropyl-7-methoxyquinoxalin-2-yl)oxy)-2-(((1R,2S)-1-(((1-methylcyclopropyl)sulfonyl)carbamoyl)-2-vinylcyclopropyl)carbamoyl)pyrrolidin-1-yl)-3,3-dimethyl-1-oxobutan-2-yl)carbamate]",1180 ± 170 nM,1180 ± 170 nM,29 ± 9.4 nM,29 ± 9.4 nM,41,0.9,27 ± 5.6 nM,27 ± 5.6 nM
"C=C[C@@H]1C[C@]1(NC(=O)[C@@H]1C[C@@H](Oc2nc3cc(OC)ccc3nc2C)CN1C(=O)[C@@H](NC(=O)OC(C)(C)C)C(C)(C)C)C(=O)NS(=O)(=O)C1CC1 [Compound 9b, tert-Butyl ((S)-1-((2S,4R)-2-(((1R,2S)-1-((cyclopropylsulfonyl)carbamoyl)-2-vinylcyclopropyl)carbamoyl)-4-((7-methoxy-3-methylquinoxalin-2-yl)oxy)pyrrolidin-1-yl)-3,3-dimethyl-1-oxobutan-2-yl)carbamate]",290 ± 24 nM,290 ± 24 nM,18 ± 1.6 nM,18 ± 1.6 nM,16,0.5,8.5 ± 2.1 nM,8.5 ± 2.1 nM
